SMILES strings stand for the structures.

Sequence of PI3Kα (alpha) (P42336 whole entry): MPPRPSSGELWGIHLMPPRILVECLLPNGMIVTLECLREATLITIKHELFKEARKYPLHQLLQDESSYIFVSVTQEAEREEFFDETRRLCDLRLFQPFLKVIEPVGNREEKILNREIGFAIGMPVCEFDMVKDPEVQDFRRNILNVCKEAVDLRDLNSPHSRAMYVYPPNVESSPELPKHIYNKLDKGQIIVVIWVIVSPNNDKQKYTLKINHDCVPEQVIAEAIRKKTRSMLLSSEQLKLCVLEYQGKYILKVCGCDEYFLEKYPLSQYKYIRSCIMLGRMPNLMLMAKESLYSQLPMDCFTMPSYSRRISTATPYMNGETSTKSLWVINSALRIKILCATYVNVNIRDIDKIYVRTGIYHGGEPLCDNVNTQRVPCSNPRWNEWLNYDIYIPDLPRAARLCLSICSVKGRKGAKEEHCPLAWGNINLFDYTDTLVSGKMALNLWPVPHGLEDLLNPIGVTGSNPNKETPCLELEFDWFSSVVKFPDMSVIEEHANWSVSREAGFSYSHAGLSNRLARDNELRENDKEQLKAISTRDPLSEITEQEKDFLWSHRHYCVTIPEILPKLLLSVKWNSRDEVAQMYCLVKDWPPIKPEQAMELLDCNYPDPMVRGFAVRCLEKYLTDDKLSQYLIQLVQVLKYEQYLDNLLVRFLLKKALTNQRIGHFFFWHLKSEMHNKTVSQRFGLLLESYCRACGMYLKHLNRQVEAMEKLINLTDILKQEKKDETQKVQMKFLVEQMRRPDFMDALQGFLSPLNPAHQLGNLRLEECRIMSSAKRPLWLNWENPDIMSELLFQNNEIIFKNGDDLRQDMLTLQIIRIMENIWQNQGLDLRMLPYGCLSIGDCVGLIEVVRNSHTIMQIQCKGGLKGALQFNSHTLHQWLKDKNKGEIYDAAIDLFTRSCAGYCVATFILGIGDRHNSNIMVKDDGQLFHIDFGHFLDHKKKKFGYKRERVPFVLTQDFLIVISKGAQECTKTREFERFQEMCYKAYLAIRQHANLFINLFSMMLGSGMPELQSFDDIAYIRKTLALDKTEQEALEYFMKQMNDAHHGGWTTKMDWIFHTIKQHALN
Sequence of PI3Kα (alpha) (P27986 whole entry partner): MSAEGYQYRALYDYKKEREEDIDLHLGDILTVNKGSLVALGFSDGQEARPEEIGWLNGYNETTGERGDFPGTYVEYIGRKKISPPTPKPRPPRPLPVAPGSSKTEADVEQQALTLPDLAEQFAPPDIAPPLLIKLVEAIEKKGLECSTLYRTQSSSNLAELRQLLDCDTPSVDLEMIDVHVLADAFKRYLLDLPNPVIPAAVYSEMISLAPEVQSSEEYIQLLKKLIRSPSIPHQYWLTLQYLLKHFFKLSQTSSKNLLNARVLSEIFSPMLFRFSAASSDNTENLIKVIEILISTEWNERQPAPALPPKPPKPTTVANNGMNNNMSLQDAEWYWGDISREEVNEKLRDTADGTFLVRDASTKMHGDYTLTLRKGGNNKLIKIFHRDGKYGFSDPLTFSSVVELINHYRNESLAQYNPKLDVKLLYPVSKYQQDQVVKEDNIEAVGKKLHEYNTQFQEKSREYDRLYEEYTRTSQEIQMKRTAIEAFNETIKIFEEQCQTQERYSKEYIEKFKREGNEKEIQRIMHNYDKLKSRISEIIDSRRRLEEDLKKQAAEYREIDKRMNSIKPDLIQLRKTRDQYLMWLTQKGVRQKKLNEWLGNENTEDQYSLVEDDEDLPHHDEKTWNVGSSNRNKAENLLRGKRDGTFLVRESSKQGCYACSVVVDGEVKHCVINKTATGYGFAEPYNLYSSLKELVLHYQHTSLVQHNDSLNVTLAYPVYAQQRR

The target of the test is PI3Kα (alpha) (Homo sapiens (Human), UniProt P42336). Description: p110α (alpha) PI3K Binding Assay (ADP-Glo lipid kinase reaction). The format is biochemical. The settings on record: PI3K alpha 0.2 nM, ATP 40 μM, PIP2:3PS 50 μM, 120 min, room temperature; Ki by Morrison Equation; read-out: PI3Kα-(alpha) ATP (Ki) micromolar. How it is done:
The ability of a compound of the invention to act as an inhibitor of PI3Kα was determined using the methods of Example 901.
PI3K Binding assays are intended for determining the biochemical potency of small molecule PI3K inhibitors. The PI3K lipid kinase reaction is performed in the presence of PIP2:3PS lipid substrate (Promega #V1792) and ATP. Following the termination if the kinase reaction, turnover of ATP to ADP by the phosphorylation of the lipid substrate is detected using the Promega ADP-Glo™ (Promega #V1792) assay. Reactions are carried out using the following conditions:
After 120 minutes of reaction time, the kinase reaction is terminated. Any ATP remaining after the reaction is depleted, leaving only ADP. Then the Kinase Detection Reagent is added to convert ADP to ATP, which is used in a coupled luciferin/luciferase reaction. The luminescent output is measured and is correlated with kinase activity.
All reactions are carried out at room temperature. A 3 μl mixture (1:1) of enzyme/lipid substrate solution is added to a 384 well white assay plate (Perkin Elmer #6007299) containing 50 nl of test compound or DMSO only for untreated controls. The reaction is started by the addition of 2 μl ATP/MgCl2. The kinase reaction buffer contains 50 mM HEPES, 50 mM NaCl, 3 mM MgCl2, 0.01% BSA, 1% DMSO, and enzyme and substrate concentrations as indicated in the above table. The reaction is stopped by the addition of 10 μL ADP-Glo reagent. Plates are read in a Perkin Elmer Envision system using luminescence mode. 10 point dose response curves are generated for each test compound. Ki values for each compound are determined using the Morrison Equation.
`NC(=O)[C@@H](Nc1cc2c3c(c1)nc(-c1ccc4c(c1)OC(F)(F)O4)n3CCCO2)C1CC1` [Example 113, (S)-2-Cyclopropyl-2-((1-(2,2-difluorobenzo[d][1,3]dioxol-5-yl)-8,9-dihydro-7H-6-oxa-2,9a-diazabenzo[cd]azulen-4-yl)amino)acetamide]: the Ki worked out at 268 nM.

Take `NC(=O)[C@@H](Nc1cc2c3c(c1)nc(-c1ccc4c(c1)OCO4)n3CCCO2)C1CC1` [Example 114, (S)-2-((1-(Benzo[d][1,3]dioxol-5-yl)-8,9-dihydro-7H-6-oxa-2,9a-diazabenzo[cd]azulen-4-yl)amino)-2-cyclopropylacetamide]: the Ki worked out at 23.3 nM. With `NC(=O)[C@@H](Nc1cc2c3c(c1)nc(-c1ccc4c(c1)C(=O)NC4)n3CCCO2)C1CC1` [Example 115, (S)-2-Cyclopropyl-2-((1-(3-oxoisoindolin-5-yl)-8,9-dihydro-7H-6-oxa-2,9a-diazabenzo[cd]azulen-4-yl)amino)acetamide] the figure was 36.7 nM; with `NC(=O)[C@@H](Nc1cc2c3c(c1)nc(-c1ccc4cncnc4c1)n3CCCO2)C1CC1` [Example 116, (S)-2-Cyclopropyl-2-((1-(quinazolin-7-yl)-8,9-dihydro-7H-6-oxa-2,9a-diazabenzo [cd]azulen-4-yl)amino) acetamide], 19 nM. With `NC(=O)[C@@H](Nc1cc2c3c(c1)nc(-c1ccc4nccnc4c1)n3CCCO2)C1CC1` [Example 117, (S)-2-Cyclopropyl-2-((1-(quinoxalin-6-yl)-8,9-dihydro-7H-6-oxa-2,9a-diazabenzo[cd]azulen-4-yl)amino)acetamide] the figure was 1.18 nM; with `N#Cc1cccc(-c2nc3cc(N[C@H](C(N)=O)C4CC4)cc4c3n2CCCO4)c1` [Example 118, (S)-2-((1-(3-Cyanophenyl)-8,9-dihydro-7H-6-oxa-2,9a-diazabenzo[cd]azulen-4-yl)amino)-2-cyclopropylacetamide], 561 nM; with `NC(=O)[C@@H](Nc1cc2c3c(c1)nc(-c1ccc4ncncc4c1)n3CCCO2)C1CC1` [Example 119, (S)-2-Cyclopropyl-2-((1-(quinazolin-6-yl)-8,9-dihydro-7H-6-oxa-2,9a-diazabenzo[cd]azulen-4-yl)amino)acetamide], 215 nM. With `NC(=O)[C@@H](Nc1cc2c3c(c1)nc(-c1ccc4nc(N)ncc4c1)n3CCCO2)C1CC1` [Example 120] the figure was 5.34 nM; with `Cc1ccncc1-c1nc2cc(N[C@H](C(N)=O)C3CC3)cc3c2n1CCCO3` [Example 122, (S)-2-Cyclopropyl-2-((1-(4-methylpyridin-3-yl)-8,9-dihydro-7H-6-oxa-2,9a-diazabenzo[cd]azulen-4-yl)amino)acetamide], 296 nM. On to `Cc1cc(-c2nc3cc(N[C@H](C(N)=O)C4CC4)cc4c3n2CCCO4)nc(CO)n1` [Example 123, (S)-2-Cyclopropyl-2-((1-(2-(hydroxymethyl)-6-methylpyrimidin-4-yl)-8,9-dihydro-7H-6-oxa-2,9a-diazabenzo[cd]azulen-4-yl)amino)acetamide], for which the Ki was found to be 45 nM. Consider `CC(C)(C(N)=O)n1cc(-c2cc3c4c(c2)nc(-c2ccc5oc(N)nc5c2)n4CCCO3)cn1` [Example 124, 2-(4-(1-(2-Aminobenzo[d]oxazol-5-yl)-8,9-dihydro-7H-6-oxa-2,9a-diazabenzo[cd]azulen-4-yl)-1H-pyrazol-1-yl)-2-methylpropanamide], for which the Ki was determined as 0.117 nM. With `NC(=O)[C@@H](Nc1cc2c3c(c1)nc(-c1ccnnc1)n3CCCO2)C1CC1` [Example 125, (S)-2-Cyclopropyl-2-((1-(pyridazin-4-yl)-8,9-dihydro-7H-6-oxa-2,9a-diazabenzo [cd]azulen-4-yl)amino)acetamide] the figure was 221 nM; with `NC(=O)[C@@H](Nc1cc2c3c(c1)nc(N1CCC(CO)CC1)n3CCCO2)C1CC1` [Example 126, (S)-2-Cyclopropyl-2-[1-(4-hydroxymethylpiperidin-1-yl)-8,9-dihydro-7H-6-oxa-2,9a-diazabenzo[cd]azulen-4-ylamino]acetamide], 678 nM. With `NC(=O)[C@@H](Nc1cc2c3c(c1)nc(N1CCCCC1)n3CCCO2)C1CC1` [Example 127, (S)-2-Cyclopropyl-2-(1-piperidin-1-yl-8,9-dihydro-7H-6-oxa-2,9a-diazabenzo[cd]azulen-4-ylamino)acetamide] the figure was 719 nM; with `COc1ncc(-c2nc3cc(N[C@H](C(N)=O)C4CC4)cc4c3n2CCCO4)cn1` [Example 128, (S)-2-cyclopropyl-2-((1-(2-methoxypyrimidin-5-yl)-8,9-dihydro-7H-6-oxa-2,9a-diazabenzo[cd]azulen-4-yl)amino)acetamide], 73.5 nM; with `Cn1nc(-c2nc3cc(N[C@H](C(N)=O)C4CC4)cc4c3n2CCCO4)ccc1=O` [Example 129, (S)-2-Cyclopropyl-2-((1-(1-methyl-6-oxo-1,6-dihydropyridazin-3-yl)-8,9-dihydro-7H-6-oxa-2,9a-diazabenzo[cd]azulen-4-yl)amino)acetamide], 257 nM. Next, `COc1ncc(-c2nc3cc(N[C@H](C(N)=O)C4CC4)cc4c3n2CCCO4)cc1Cl` [Example 130, (S)-2-((1-(5-Chloro-6-methoxypyridin-3-yl)-8,9-dihydro-7H-6-oxa-2,9a-diazabenzo[cd]azulen-4-yl)amino)-2-cyclopropylacetamide]: 7.67 nM; `NC(=O)[C@@H](Nc1cc2c3c(c1)nc(-c1ccc4c(c1)NC(=O)CO4)n3CCCO2)C1CC1` [Example 131, (S)-2-Cyclopropyl-2-((1-(3-oxo-3,4-dihydro-2H-benzo[b][1,4]oxazin-6-yl)-8,9-dihydro-7H-6-oxa-2,9a-diazabenzo[cd]azulen-4-yl)amino)acetamide]: 821 nM; `NC(=O)[C@@H](Nc1cc2c3c(c1)nc(-c1ccn4ncnc4c1)n3CCCO2)C1CC1` [Example 132, (S)-2-((1-([1,2,4]Triazolo[1,5-a]pyridin-7-yl)-8,9-dihydro-7H-6-oxa-2,9a-diazabenzo[cd]azulen-4-yl)amino)-2-cyclopropylacetamide]: 1.6 nM. As to `NC(=O)[C@@H](Nc1cc2c3c(c1)nc(-c1ccc4[nH]ncc4c1)n3CCCO2)C1CC1` [Example 133, (S)-2-((1-(1H-Indazol-5-yl)-8,9-dihydro-7H-6-oxa-2,9a-diazabenzo[cd]azulen-4-yl)amino)-2-cyclopropylacetamide], the Ki amounted to 43.4 nM.

As to `NC(=O)[C@@H](Nc1cc2c3c(c1)nc(-c1cncnc1)n3CCCO2)C1CC1` [Example 134, (S)-2-Cyclopropyl-2-((1-(pyrimidin-5-yl)-8,9-dihydro-7H-6-oxa-2,9a-diazabenzo[cd]azulen-4-yl)amino)acetamide], the Ki amounted to 242 nM. Consider `NC(=O)[C@@H](Nc1cc2c3c(c1)nc(-c1ccc4oc(N)nc4c1)n3CCCO2)C1CC1` [Example 135, (S)-2-((1-(2-Aminobenzo[d]oxazol-5-yl)-8,9-dihydro-7H-6-oxa-2,9a-diazabenzo[cd]azulen-4-yl)amino)-2-cyclopropylacetamide], for which the Ki was found to be 0.076 nM. Regarding `NC(=O)[C@@H](Nc1cc2c3c(c1)nc(-c1cncs1)n3CCCO2)C1CC1` [Example 136, (S)-2-Cyclopropyl-2-((1-(thiazol-5-yl)-8,9-dihydro-7H-6-oxa-2,9a-diazabenzo[cd]azulen-4-yl)amino)acetamide], the Ki was 76.4 nM. Next, `CS(=O)(=O)c1ccc(-c2nc3cc(N[C@H](C(N)=O)C4CC4)cc4c3n2CCCO4)cc1` [Example 137, (S)-2-Cyclopropyl-2-((1-(4-(methylsulfonyl)phenyl)-8,9-dihydro-7H-6-oxa-2,9a-diazabenzo[cd]azulen-4-yl)amino)acetamide]: 916 nM.

For the molecule `NC(=O)[C@@H](Nc1cc2c3c(c1)nc(-c1ccc4c(c1)OCCO4)n3CCCO2)C1CC1` [Example 138, (S)-2-Cyclopropyl-2-((1-(2,3-dihydrobenzo[b][1,4]dioxin-6-yl)-8,9-dihydro-7H-6-oxa-2,9a-diazabenzo[cd]azulen-4-yl)amino)acetamide], the Ki is 22.9 nM. In the case of `C[C@H](Nc1cc2c3c(c1)nc(N1CCC[C@@H](CO)C1)n3CCCO2)C(N)=O` [Example 139, (S)-2-[1-((R)-3-Hydroxymethylpiperidin-1-yl)-8,9-dihydro-7H-6-oxa-2,9a-diazabenzo[cd]azulen-4-ylamino]propionamide], the Ki was determined as 288 nM.

In the case of `C[C@H](Nc1cc2c3c(c1)nc(N1CCC(CO)CC1)n3CCCO2)C(N)=O` [Example 140, (S)-2-[1-(4-Hydroxymethylpiperidin-1-yl)-8,9-dihydro-7H-6-oxa-2,9a-diazabenzo[cd]azulen-4-ylamino]propionamide], the Ki came out at 681 nM. Next, `NC(=O)[C@@H](Nc1cc2c3c(c1)nc(N1CCOCC1)n3CCCO2)C1CC1` [Example 141, (S)-2-Cyclopropyl-2-((1-morpholino-8,9-dihydro-7H-6-oxa-2,9a-diazabenzo[cd]azulen-4-yl)amino)acetamide]: 740 nM.

(Values after patent publication US10065970B2 (Genentech, Inc., priority 2015, dated 2018).)
